Series [1] in a line: Metabolic stability in rat plasma assessed as compound remaining measured upto 120 mins by LC/MS analysis. Format: ADME, cell-free. Conditions: read-out: Stability.
The nature of series [2]: Bioavailability in Sprague-Dawley rat at 10 mg/kg, IG measured upto 8 hrs by LC-MS/MS analysis. Conditions: in vivo, po. The class given is ADME, organism-based.
The subject of series [3] is MM1.S. Put plainly: Induction of cell cycle arrest in human MM1.S cells assessed as accumulation at G1 phase at 5000 nM incubated for 48 hrs by propidium iodide staining based flow cytometric analysis (reference value: 59.8%). The class given is functional. A general note: Flow cytometry measures light scatter and fluorescence of single cells or particles in a stream.

Series [4] deals with MM1.S. Put plainly: Induction of apoptosis in human MM1.S cells assessed as assessed as viable cells at 1000 nM measured after 48 hrs by annexin V-FITC/PI staining based flow cytometry analysis (Rvb=85.74%). The class given is functional. The conditions noted are these: read-out: Activity.
A short description of series [5]: Cmax in Sprague-Dawley rat at 1 mg/kg, iv measured upto 8 hrs by LC-MS/MS analysis. Set-up: dose 1 mg/kg, time < 8 hrs, route iv. The conditions noted are these: in vivo. Format: ADME, organism-based.
The subject of series [6] is MM1.S. Nature of the series: Induction of apoptosis in human MM1.S cells assessed as increase in apoptosis rate at 10 uM measured after 48 hrs by annexin V-FITC/PI staining based flow cytometry analysis (Rvb=6.7%). Format: functional.
Series [7] in a line: AUC (0 to t) in Sprague-Dawley rat at 1 mg/kg, iv measured upto 8 hrs by LC-MS/MS analysis. The class given is ADME, organism-based. Set-up: time < 8 hrs, dose 1 mg/kg, route iv. Conditions: in vivo.
Series [8] in a line: AUC (0 to t) in Sprague-Dawley rat at 10 mg/kg, IG measured upto 8 hrs by LC-MS/MS analysis. Set-up: time < 8 hrs, dose 10 mg/kg, route ig. Format: ADME, organism-based. The conditions noted are these: in vivo, po.
The subject of another series is NAMALVA. Nature of the series: Antiproliferative activity against human NAMALVA cells assessed as inhibition of cell growth incubated for 4 hrs by CCK-8 assay. The class given is functional, cell-based. (Tetrazolium assays rely on reduction of a dye to a coloured formazan, in cell work by metabolically active cells.)
A short description of series [9]: Antiproliferative activity against human VAL cells assessed as inhibition of cell growth incubated for 4 hrs by CCK-8 assay. The class given is functional, cell-based.
Series [10] in a line: Clearance in Sprague-Dawley rat at 1 mg/kg, iv measured upto 8 hrs by LC-MS/MS analysis. The class given is ADME, organism-based. Conditions: in vivo.
The test system of series [11] is MM1.S. Put plainly: Induction of apoptosis in human MM1.S cells assessed as assessed as necrotic cells at 1000 nM measured after 48 hrs by annexin V-FITC/PI staining based flow cytometry analysis (Rvb=7.60%). Format: functional.
Series [12] has as its system MM1.S. Put plainly: Induction of apoptosis in human MM1.S cells assessed as assessed as early apoptotic cells at 1000 nM measured after 48 hrs by annexin V-FITC/PI staining based flow cytometry analysis (Rvb=4.60%). The class given is functional.

For `CS(=O)(=O)Nc1ccc(/C(=C\n2cnc(-c3cc(C(F)(F)F)cc(C(F)(F)F)c3)n2)C(N)=O)cc1`, in series [1], the remaining at 2 h was 80%. For the same compound, in series [2], the bioavailability (usually dose-corrected exposure relative to a reference, in per cent) turned out to be 34.6%. Moreover, the Activity worked out at 52.6% in the series with MM1.S [3], 64.7% with MM1.S [6], 6.61% with MM1.S [11] and 26.42% in the series on MM1.S [12]. For the same compound, the viability at 1 µM with MM1.S [4] stood at 46.5%. In addition, the Cmax – broadly, the maximum level reached in the sampled fluid or tissue – in series [5] is 1240 ng/mL. Moreover, the values for the AUC(0-t) at 8 h in [7] and in [8] were 1670 ng·h/mL and 5770 ng·h/mL, respectively. Moreover, the IC50 (in general, the concentration at which inhibition is half-maximal) is 77.7 nM in the series on NAMALVA and 189 nM in series [9]. In addition, in [10], the clearance – broadly, the rate of elimination divided by the concentration – is 9.42 mL/min/kg.
